{
  "source": "patent US10513694B2",
  "about": "“Thienopyrrole compounds and uses thereof” (PROMEGA CORPORATION, priority 2015, dated 2019)",
  "note": "pIC50: −log10 of the molar value.",
  "data": [
    {"target": "NANOLUC® enzyme (Oplophorus gracilirostris, UniProt Q9GV45, A31E/A60N/A81I/F95D/I117V/K70R/L54V/L99Q/M102K/N193R/P142E/Q151K/Q38R/Q45L/V71I/Y165I)", "sequence (Q9GV45 28-196 with tags or gaps with the stated changes limits assumed)": "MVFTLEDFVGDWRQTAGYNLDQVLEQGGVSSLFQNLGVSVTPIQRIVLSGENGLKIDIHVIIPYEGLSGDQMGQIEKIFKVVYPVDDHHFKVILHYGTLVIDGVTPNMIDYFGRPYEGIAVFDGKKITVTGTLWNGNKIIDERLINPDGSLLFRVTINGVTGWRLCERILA", "experiment": "Inhibitor IC50 determination (NANOLUC enzyme, furimazine)", "assay_type": "biochemical", "settings": "0.4 ng/ml NANOLUC enzyme, final furimazine 10 uM (at Km); read-out: IC50", "method": "(§1) The following example provides the IC50 values for the compounds disclosed herein. See Table 5 NANOLUC® enzyme was diluted to 0.4 ng/ml in CO2 independent media+10% FBS to make the detection reagent. A 3× dilution series of each inhibitor was then made in the detection reagent. A “no inhibitor” control was also made for each sample. 50 ul of each inhibitor dilution was mixed with 50 ul of NanoGlo buffer containing 20 uM furimazine. (Final furimazine concentration is 10 uM which is at Km.), and luminescence measured. Each sample was normalized to the “no inhibitor” control. The […] values were then determined using GraphPad Prism (log [inhibitor] vs. normalized response).", "values": [
      {"compound": "N-(trans-4-((6-(3′,6′-dihydroxy-3-oxo-3H-spiro[isobenzofuran-1,9′-xanthene]-5(6)-carboxamido)hexyl)carbamoyl)cyclohexyl)-4-(2-(ethyl(m-tolyl)amino)-2-oxoethyl)-4H-thieno[3,2-b]pyrrole-5-carboxamide [JRW-0200]", "pIC50": 7.11}
    ]},
    {"target": "NANOLUC® enzyme (Oplophorus gracilirostris, UniProt Q9GV45, A31E/A60N/A81I/F95D/I117V/K70R/L54V/L99Q/M102K/N193R/P142E/Q151K/Q38R/Q45L/V71I/Y165I)", "experiment": "Inhibitor IC50 determination (NANOLUC enzyme, furimazine)", "assay_type": "biochemical", "settings": "IC50 (uM), 0.4 ng/ml NANOLUC enzyme, final furimazine 10 uM (at Km)", "method": "as §1", "units": {"IC50": "µM"}, "values": [
      {"compound": "CCN(C(=O)Cn1c(C(=O)N[C@H]2CC[C@H](C(=O)OC)CC2)cc2sccc21)c1ccccc1C", "note": "[JRW-0330, Methyl trans-4-(4-(2-(ethyl(o-tolyl)amino)-2-oxoethyl)-4H-thieno[3,2-b]pyrrole-5-carboxamido)cyclohexane-1-carboxylate]", "IC50": 0.7},
      {"compound": "COC(=O)[C@H]1CC[C@H](NC(=O)c2cc3sccc3n2CC(=O)N2CCCc3cc(C)ccc32)CC1", "note": "[JRW-0331, Methyl trans-4-(4-(2-(6-methyl-3,4-dihydroquinolin-1(2H)-yl)-2-oxoethyl)-4H-thieno[3,2-b]pyrrole-5-carboxamido)cyclohexane-1-carboxylate]", "IC50": 16.9},
      {"compound": "CCN(C(=O)Cn1c(C(=O)N[C@H]2CC[C@H](C(=O)OC)CC2)cc2sccc21)c1ccc(C)cc1", "note": "[JRW-0334, Methyl trans-4-(4-(2-(ethyl(p-tolyl)amino)-2-oxoethyl)-4H-thieno[3,2-b]pyrrole-5-carboxamido)cyclohexane-1-carboxylate]", "IC50": 1.3},
      {"compound": "CCN(C(=O)Cn1c(C(=O)N[C@H]2CC[C@H](C(=O)OC)CC2)cc2sccc21)c1ccc(CO)cc1", "note": "[JRW-0335, Methyl trans-4-(4-(2-(ethyl(4-(hydroxymethyl)phenyl)amino)-2-oxoethyl)-4H-thieno[3,2-b]pyrrole-5-carboxamido)cyclohexane-1-carboxylate]", "IC50": 1.9},
      {"compound": "CCN(C(=O)Cn1c(C(=O)N[C@H]2CC[C@H](C(=O)OC)CC2)cc2ccccc21)c1cccc(C)c1", "note": "[JRW-0355, Methyl trans-4-(1-(2-(ethyl(m-tolyl)amino)-2-oxoethyl)-1H-indole-2-carboxamido)cyclohexane-1-carboxylate]", "IC50": 0.052},
      {"compound": "CCN(C(=O)Cn1c(C(=O)N[C@H]2CC[C@H](C(=O)OC)CC2)cc2ccc(OC)cc21)c1cccc(C)c1", "note": "[JRW-0359, Methyl trans-4-(1-(2-(ethyl(m-tolyl)amino)-2-oxoethyl)-6-methoxy-1H-indole-2-carboxamido)cyclohexane-1-carboxylate]", "IC50": 3},
      {"compound": "CCN(C(=O)Cn1c(C(=O)N[C@H]2CC[C@H](C(=O)OC)CC2)cc2occc21)c1cccc(C)c1", "note": "[JRW-360, Methyl trans-4-(4-(2-(ethyl(m-tolyl)amino)-2-oxoethyl)-4H-furo[3,2-b]pyrrole-5-carboxamido)cyclohexane-1-carboxylate]", "IC50": 0.61},
      {"compound": "CCc1cccc(N(CC)C(=O)Cn2c(C(=O)N[C@H]3CC[C@H](C(=O)OC)CC3)cc3ccccc32)c1", "note": "[JRW-0424, Methyl trans-4-(1-(2-(ethyl(3-ethylphenyl)amino)-2-oxoethyl)-1H-indole-2-carboxamido)cyclohexane-1-carboxylate]", "IC50": 0.005},
      {"compound": "CCc1cccc(N(CC)C(=O)Cn2c(C(=O)N[C@H]3CC[C@H](C(=O)NCCCCCCO)CC3)cc3sccc32)c1", "note": "[JRW-0429, 4-(2-(Ethyl(3-ethylphenyl)amino)-2-oxoethyl)-N-(trans-4-((6-hydroxyhexyl)carbamoyl)cyclohexyl)-4H-thieno[3,2-b]pyrrole-5-carboxamide]", "IC50": 0.0021},
      {"compound": "CCc1cccc(N(CC)C(=O)Cn2c(C(=O)N[C@H]3CC[C@H](C(=O)NCCCCCCO)CC3)cc3ccccc32)c1", "note": "[JRW-0430, 1-(2-(Ethyl(3-ethylphenyl)amino)-2-oxoethyl)-N-(trans-4-((6-hydroxyhexyl)carbamoyl)cyclohexyl)-1H-indole-2-carboxamide]", "IC50": 0.0021},
      {"compound": "CCc1cccc(N(CC)C(=O)Cn2c(C(=O)N[C@H]3CC[C@H](C(=O)NCCCCCCS(=O)(=O)O)CC3)cc3sccc32)c1", "note": "[JRW-0432, Sodium 6-(trans-4-(4-(2-(ethyl(3-ethylphenyl)amino)-2-oxoethyl)-4H-thieno[3,2-b]pyrrole-5-carboxamido)cyclohexane-1-carboxamido)hexane-1-sulfonate]", "IC50": 0.0031},
      {"compound": "CCc1cccc(N(CC)C(=O)Cn2c(C(=O)N[C@H]3CC[C@H](C(=O)NCCCCCCS(=O)(=O)O)CC3)cc3ccccc32)c1", "note": "[JRW-0434, Sodium 6-(trans-4-(1-(2-(ethyl(3-ethylphenyl)amino)-2-oxoethyl)-1H-indole-2-carboxamido)cyclohexane-1-carboxamido)hexane-1-sulfonate]", "IC50": 0.0019},
      {"compound": "CCN(C(=O)Cn1cccc1C(=O)N[C@H]1CC[C@H](C(=O)OC)CC1)c1cccc(C)c1", "note": "[JRW-0456, Methyl trans-4-(1-(2-(ethyl(m-tolyl)amino)-2-oxoethyl)-1H-pyrrole-2-carboxamido)cyclohexane-1-carboxylate]", "IC50": 7.4},
      {"compound": "CCN(C(=O)Cn1c(C(=O)N[C@H]2CC[C@H](C(=O)OC)CC2)cc2sccc21)c1cccc(C(C)C)c1", "note": "[JRW-0460, Methyl trans-4-(4-(2-(ethyl(3-isopropylphenyl)amino)-2-oxoethyl)-4H-thieno[3,2-b]pyrrole-5-carboxamido)cyclohexane-1-carboxylate]", "IC50": 0.12},
      {"compound": "CCN(C(=O)Cn1c(C(=O)N[C@H]2CC[C@H](C(=O)OC)CC2)cc2sccc21)c1cccc(CO)c1", "note": "[JRW-0461, Methyl trans-4-(4-(2-(ethyl(3-(hydroxymethyl)phenyl)amino)-2-oxoethyl)-4H-thieno[3,2-b]pyrrole-5-carboxamido)cyclohexane-1-carboxylate]", "IC50": 0.077},
      {"compound": "CCN(C(=O)Cn1c(C(=O)N[C@H]2CC[C@H](C(=O)OC)CC2)cc2ccsc21)c1cccc(C)c1", "note": "[JRW-0463, Methyl trans-4-(6-(2-(ethyl(m-tolyl)amino)-2-oxoethyl)-6H-thieno[2,3-b]pyrrole-5-carboxamido)cyclohexane-1-carboxylate]", "IC50": 0.71},
      {"compound": "CCN(C(=O)Cn1c(C(=O)N[C@H]2CC[C@H](C(=O)OC)CC2)cc2sccc21)c1cccc(CBr)c1", "note": "[JRW-0466, Methyl trans-4-(4-(2-((3-(bromomethyl)phenyl)(ethyl)amino)-2-oxoethyl)-4H-thieno[3,2-b]pyrrole-5-carboxamido)cyclohexane-1-carboxylate]", "IC50": 0.0018},
      {"compound": "CCN(C(=O)Cn1c(C(=O)N[C@H]2CC[C@H](C(=O)OC)CC2)cc2sccc21)c1cccc(N(C)C)c1", "note": "[JRW-0478, Methyl trans-4-(4-(2-((3-(dimethylamino)phenyl)(ethyl)amino)-2-oxoethyl)-4H-thieno[3,2-b]pyrrole-5-carboxamido)cyclohexane-1-carboxylate]", "IC50": 0.065},
      {"compound": "CCN(C(=O)Cn1c(C(=O)N[C@H]2CC[C@H](C(=O)OC)CC2)cc2sccc21)c1cccc(CC(C)C)c1", "note": "[JRW-0508, Methyl trans-4-(4-(2-(ethyl(3-isobutylphenyl)amino)-2-oxoethyl)-4H-thieno[3,2-b]pyrrole-5-carboxamido)cyclohexane-1-carboxylate]", "IC50": 0.027}
    ]}
  ]
}
